According to patent US9580444B2, “Polycyclic pyrazolinone derivative and herbicide comprising same as effective component thereof” (priority 2013, dated 2017):

Experiments:
Type in all cases: in vivo
[1] = system: Chenopodium album (common lambsquarters); assay: Test Example-2: herbicidal effect by a soil treatment before weeds are generated under upland field conditions; settings: application amount 500 g a.i/ha, soil spray treatment before weeds are generated, about 21 days after the treatment, score 0 to 5
Source text: (§1) Using the formulation prepared according to the methods described above, the herbicidal effect of the bicyclic pyrazolinone derivative of the invention according to the methods shown in Test Examples below was examined. The herbicidal effect with respect to the test weeds or the phytotoxicity with respect to the test crops was examined according to the following criteria, and evaluated in six stage scores of 0 to 5. A vat having an area of 81 cm^2 and a depth of 3.5 cm was filled with upland soil, then, seeds of Amaranthus viridis (green amaranthus), Chenopodium album (common lambsquarters), and corn were seeded thereto, and the seeds were covered with soil of about 0.5 cm. Next day, a wettable powder or an emulsifiable concentrate of the compound of the present invention prepared according to Formulation Example was diluted, and a spray treatment was uniformly performed on the covered oil so as to be a predetermined dosage. The herbicidal effect with respect to the test weeds and the phytotoxicity with respect to corn about 21 days after the treatment were evaluated according to the evaluation criteria in six stages of 0 to 5 described above.

[2] = system: Amaranthus viridis (green amaranthus); assay: as above; settings: application amount 500 g a.i/ha, soil spray treatment before weeds are generated, about 21 days after the treatment, score 0 to 5
Source text: as §1

[3] = system: Abutilon theophrasti (velvetleaf); assay: Test Example-4: herbicidal effect by a foliage treatment after weeds are generated under upland field conditions; settings: 500 g a.i/ha, foliage treatment after emergence, about 14 days after treatment, score 0-5
Outline: (§2)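 Weed seeds were sown in upland soil, covered with about 0.5 cm soil and grown 14 days with watering. Diluted wettable powder or emulsifiable concentrate was then sprayed uniformly on foliage at a set dosage in 4000 L water/ha. Weed control and corn injury were scored 0–5 about 14 days later.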

[4] = system: Chenopodium album (common lambsquarters); assay: as above; settings: 500 g a.i/ha, foliage treatment after emergence, about 14 days after treatment, score 0-5
Outline: as §2

[5] = system: Amaranthus viridis (green amaranthus); assay: as above; settings: 500 g a.i/ha, foliage treatment after emergence, about 14 days after treatment, score 0-5
Outline: as §2

corn [6] = assay: Test Example-2: phytotoxicity by a soil treatment before weeds are generated under upland field conditions; settings: application amount 500 g a.i/ha, soil spray treatment before weeds are generated, about 21 days after the treatment, score 0 to 5
Source text: as §1

[7] = system: Cyperus difformis (smallflower umbrella plant); assay: Test Example-1: herbicidal effect by a treatment before weeds are generated under submerged conditions; settings: 500 g a.i/ha, pre-emergence treatment, about 15 days after treatment, score 0-5
Outline: (§3)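 Paddy soil in cups was puddled, seeded with the weeds and kept flooded; compound as wettable powder or emulsifiable concentrate was diluted and applied into the water on the seeding day at a set dosage. Effect was scored about 15 days later on a 0–5 scale.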

[8] = system: Scirpus juncoides (bulrush); assay: as above; settings: 500 g a.i/ha, pre-emergence treatment, about 15 days after treatment, score 0-5
Outline: as §3

[9] = system: Eleocharis acicularis (needle spikerush); assay: as above; settings: 500 g a.i/ha, pre-emergence treatment, about 15 days after treatment, score 0-5
Outline: as §3

[10] = system: Monochoria vaginalis (monochoria); assay: as above; settings: 500 g a.i/ha, pre-emergence treatment, about 15 days after treatment, score 0-5
Outline: as §3

[11] = system: other annual broad leaf weeds (Lindernia procumbens, Rotala indica, Elatine triandra); assay: as above; settings: 500 g a.i/ha, pre-emergence treatment, about 15 days after treatment, score 0-5
Outline: as §3

[12] = system: Echinochloa oryzicola (barnyard grass); assay: as above; settings: 500 g a.i/ha, pre-emergence treatment, about 15 days after treatment, score 0-5
Outline: as §3

corn [13] = assay: Test Example-4: phytotoxicity by a foliage treatment after weeds are generated under upland field conditions; settings: 500 g a.i/ha, foliage treatment after emergence, about 14 days after treatment, score 0-5
Outline: as §2

O=c1c(-c2cc(OC3CCCC3)c(Cl)cc2F)c(Cl)n2n1CCCC2 [Example 1-181]
Herbicidal effect Chenopodium album [1]: 5 (Herbicidal effect/phytotoxicity was 90% or greater) | Herbicidal effect Amaranthus viridis [2]: 5 (Herbicidal effect/phytotoxicity was 90% or greater) | Herbicidal effect Abutilon theophrast [3]: 5 (Herbicidal effect/phytotoxicity was 90% or greater) | Herbicidal effect Chenopodium album [4]: 5 (Herbicidal effect/phytotoxicity was 90% or greater) | Herbicidal effect Amaranthus viridis [5]: 5 (Herbicidal effect/phytotoxicity was 90% or greater) | Phytotoxicity Corn (corn [6]): 0 (Herbicidal effect/phytotoxicity was 0% to 10%) | Herbicidal effect Cyperus difformis [7]: 5 (Herbicidal effect/phytotoxicity was 90% or greater) | Herbicidal effect Scirpus juncoides [8]: 5 (Herbicidal effect/phytotoxicity was 90% or greater) | Herbicidal effect Eleocharis acicularis [9]: 5 (Herbicidal effect/phytotoxicity was 90% or greater) | Herbicidal effect Monochoria vaginalis [10]: 5 (Herbicidal effect/phytotoxicity was 90% or greater) | Herbicidal effect Broadleaf weed [11]: 5 (Herbicidal effect/phytotoxicity was 90% or greater) | Herbicidal effect Echinochloa oryzicola [12]: 5 (Herbicidal effect/phytotoxicity was 90% or greater) | Phytotoxicity Corn (corn [13]): 1 (Herbicidal effect/phytotoxicity was 10% to 30%)

C#CCOc1cc(-c2c(Cl)n3n(c2=O)CCCCC3)c(Cl)cc1Cl [Example 1-303]
Herbicidal effect Chenopodium album [1]: 5 (Herbicidal effect/phytotoxicity was 90% or greater) | Herbicidal effect Amaranthus viridis [2]: 5 (Herbicidal effect/phytotoxicity was 90% or greater) | Herbicidal effect Abutilon theophrast [3]: 5 (Herbicidal effect/phytotoxicity was 90% or greater) | Herbicidal effect Chenopodium album [4]: 5 (Herbicidal effect/phytotoxicity was 90% or greater) | Herbicidal effect Amaranthus viridis [5]: 5 (Herbicidal effect/phytotoxicity was 90% or greater) | Phytotoxicity Corn (corn [6]): 0 (Herbicidal effect/phytotoxicity was 0% to 10%) | Herbicidal effect Cyperus difformis [7]: 5 (Herbicidal effect/phytotoxicity was 90% or greater) | Herbicidal effect Scirpus juncoides [8]: 5 (Herbicidal effect/phytotoxicity was 90% or greater) | Herbicidal effect Eleocharis acicularis [9]: 5 (Herbicidal effect/phytotoxicity was 90% or greater) | Herbicidal effect Monochoria vaginalis [10]: 5 (Herbicidal effect/phytotoxicity was 90% or greater) | Herbicidal effect Broadleaf weed [11]: 5 (Herbicidal effect/phytotoxicity was 90% or greater) | Herbicidal effect Echinochloa oryzicola [12]: 5 (Herbicidal effect/phytotoxicity was 90% or greater) | Phytotoxicity Corn (corn [13]): 1 (Herbicidal effect/phytotoxicity was 10% to 30%)

C=C(Cl)COc1cc(-c2c(Cl)n3n(c2=O)CCCC3)c(F)cc1Cl [Example 1-369]
Herbicidal effect Chenopodium album [1]: 5 (Herbicidal effect/phytotoxicity was 90% or greater) | Herbicidal effect Amaranthus viridis [2]: 5 (Herbicidal effect/phytotoxicity was 90% or greater) | Herbicidal effect Abutilon theophrast [3]: 5 (Herbicidal effect/phytotoxicity was 90% or greater) | Herbicidal effect Chenopodium album [4]: 5 (Herbicidal effect/phytotoxicity was 90% or greater) | Herbicidal effect Amaranthus viridis [5]: 5 (Herbicidal effect/phytotoxicity was 90% or greater) | Phytotoxicity Corn (corn [6]): 0 (Herbicidal effect/phytotoxicity was 0% to 10%) | Herbicidal effect Cyperus difformis [7]: 5 (Herbicidal effect/phytotoxicity was 90% or greater) | Herbicidal effect Scirpus juncoides [8]: 5 (Herbicidal effect/phytotoxicity was 90% or greater) | Herbicidal effect Eleocharis acicularis [9]: 5 (Herbicidal effect/phytotoxicity was 90% or greater) | Herbicidal effect Monochoria vaginalis [10]: 5 (Herbicidal effect/phytotoxicity was 90% or greater) | Herbicidal effect Broadleaf weed [11]: 5 (Herbicidal effect/phytotoxicity was 90% or greater) | Herbicidal effect Echinochloa oryzicola [12]: 5 (Herbicidal effect/phytotoxicity was 90% or greater) | Phytotoxicity Corn (corn [13]): 1 (Herbicidal effect/phytotoxicity was 10% to 30%)

C#CCOc1cc(-c2c(Cl)n3n(c2=O)CCCC3)c(Cl)cc1Cl [Example 1-302]
Herbicidal effect Chenopodium album [1]: 5 (Herbicidal effect/phytotoxicity was 90% or greater) | Herbicidal effect Amaranthus viridis [2]: 5 (Herbicidal effect/phytotoxicity was 90% or greater) | Herbicidal effect Abutilon theophrast [3]: 5 (Herbicidal effect/phytotoxicity was 90% or greater) | Herbicidal effect Chenopodium album [4]: 5 (Herbicidal effect/phytotoxicity was 90% or greater) | Herbicidal effect Amaranthus viridis [5]: 5 (Herbicidal effect/phytotoxicity was 90% or greater) | Phytotoxicity Corn (corn [6]): 2 (Herbicidal effect/phytotoxicity was 30% to 50%) | Herbicidal effect Cyperus difformis [7]: 5 (Herbicidal effect/phytotoxicity was 90% or greater) | Herbicidal effect Scirpus juncoides [8]: 5 (Herbicidal effect/phytotoxicity was 90% or greater) | Herbicidal effect Eleocharis acicularis [9]: 5 (Herbicidal effect/phytotoxicity was 90% or greater) | Herbicidal effect Monochoria vaginalis [10]: 5 (Herbicidal effect/phytotoxicity was 90% or greater) | Herbicidal effect Broadleaf weed [11]: 5 (Herbicidal effect/phytotoxicity was 90% or greater) | Herbicidal effect Echinochloa oryzicola [12]: 5 (Herbicidal effect/phytotoxicity was 90% or greater) | Phytotoxicity Corn (corn [13]): 1 (Herbicidal effect/phytotoxicity was 10% to 30%)

C#CC(C)Oc1cc(-c2c(Cl)n3n(c2=O)CCOCC3)c(F)cc1Cl (centres unmarked) [Example 1-245]
Herbicidal effect Chenopodium album [1]: 5 (Herbicidal effect/phytotoxicity was 90% or greater) | Herbicidal effect Amaranthus viridis [2]: 5 (Herbicidal effect/phytotoxicity was 90% or greater) | Herbicidal effect Abutilon theophrast [3]: 5 (Herbicidal effect/phytotoxicity was 90% or greater) | Herbicidal effect Chenopodium album [4]: 5 (Herbicidal effect/phytotoxicity was 90% or greater) | Herbicidal effect Amaranthus viridis [5]: 5 (Herbicidal effect/phytotoxicity was 90% or greater) | Phytotoxicity Corn (corn [6]): 0 (Herbicidal effect/phytotoxicity was 0% to 10%) | Herbicidal effect Cyperus difformis [7]: 5 (Herbicidal effect/phytotoxicity was 90% or greater) | Herbicidal effect Scirpus juncoides [8]: 5 (Herbicidal effect/phytotoxicity was 90% or greater) | Herbicidal effect Eleocharis acicularis [9]: 5 (Herbicidal effect/phytotoxicity was 90% or greater) | Herbicidal effect Monochoria vaginalis [10]: 5 (Herbicidal effect/phytotoxicity was 90% or greater) | Herbicidal effect Broadleaf weed [11]: 5 (Herbicidal effect/phytotoxicity was 90% or greater) | Herbicidal effect Echinochloa oryzicola [12]: 5 (Herbicidal effect/phytotoxicity was 90% or greater) | Phytotoxicity Corn (corn [13]): 1 (Herbicidal effect/phytotoxicity was 10% to 30%)
